Measured values reported in PubChem BioAssay AID330 (DTP/NCI, 2004).
Where “and” joins values, the source holds several entries; their conditions need not be identical. Identical values can stand only once. Inconclusive results and toxic doses are left out. How the source made its calls: active means survival T/C of 150% or more; inactive means T/C below 125% in these data.

Tested on: P388 leukemia ip, CD2F1 mice, survival T/C
Experiment: NCI In Vivo Anticancer Drug Screen. Data for tumor model P388 Leukemia (intraperitoneal) in CD2F1 (CDF1) mice
Conditions: endpoint: median survival time, higher = longer survival
In short: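 Mice carrying the transplanted tumor received test compound or vehicle. Survival was recorded in each group, and the value is the treated-group measurement divided by that of the vehicle-treated control group.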

[1] = dose: 50.0 mg/kg/injection, schedule: Q01DX005 (ip), vehicle: saline with Tween-80
[2] = dose: 100.0 mg/kg/injection, schedule: Q01DX005 (ip), vehicle: saline with Tween-80
[3] = dose: 50.0 mg/kg/injection, schedule: Q01DX005 (ip), vehicle: Klucel (hydroxypropylcellulose) (HPC)
[4] = dose: 100.0 mg/kg/injection, schedule: Q01DX005 (ip), vehicle: Klucel (hydroxypropylcellulose) (HPC)
[5] = dose: 200.0 mg/kg/injection, schedule: Q01DX005 (ip), vehicle: Klucel (hydroxypropylcellulose) (HPC)
[6] = dose: 100.0 mg/kg/injection, schedule: Q01DX009 (ip), vehicle: saline with Tween-80
[7] = dose: 200.0 mg/kg/injection, schedule: Q01DX009 (ip), vehicle: saline with Tween-80
[8] = dose: 50.0 mg/kg/injection, schedule: Q01DX009 (ip), vehicle: Klucel (hydroxypropylcellulose) (HPC)
[9] = dose: 100.0 mg/kg/injection, schedule: Q01DX009 (ip), vehicle: Klucel (hydroxypropylcellulose) (HPC)
[10] = dose: 200.0 mg/kg/injection, schedule: Q01DX009 (ip), vehicle: Klucel (hydroxypropylcellulose) (HPC)
[11] = dose: 60.0 mg/kg/injection, schedule: Q01DX005 (ip), vehicle: saline with Tween-80
[12] = dose: 120.0 mg/kg/injection, schedule: Q01DX005 (ip), vehicle: saline with Tween-80
[13] = dose: 240.0 mg/kg/injection, schedule: Q01DX005 (ip), vehicle: saline with Tween-80

Measured: T/C

NNC(=O)CCSC(=O)Nc1ccccc1
inactive: dose: 12.5 mg/kg/injection, schedule: Q01DX005 (ip), vehicle: saline with Tween-80 110 % of control | dose: 25.0 mg/kg/injection, schedule: Q01DX005 (ip), vehicle: saline with Tween-80 106 % of control | [1] 107 % of control and 112 % of control | [2] 114 % of control

Cc1ccc(S(=O)(=O)C23C(N=NC2(C)C)C3(C)C)cc1 (stereo unspecified)
inactive: [3] 103 % of control | [4] 103 % of control | [5] 100 % of control

CCCCCCOC(=O)C(O)c1ccccc1 (stereo unspecified)
inactive: [6] 100 % of control | [7] 109 % of control

Cn1c(CO)cnc1-c1ccccc1
inactive: [8] 99 % of control | [9] 100 % of control | [10] 97 % of control

CC(C)(C)C(=O)/C=C/c1ccc(Cl)c(Cl)c1
inactive: [8] 104 % of control | [9] 107 % of control | [10] 99 % of control

C=C1C(=O)OC2/C=C(\C)C(O)CCC(C)(O)CC(OC(=O)/C(C)=C/C)C12 (stereo unspecified)
inactive: dose: 7.5 mg/kg/injection, schedule: Q01DX009 (ip), vehicle: saline with Tween-80 104 % of control | dose: 15.0 mg/kg/injection, schedule: Q01DX009 (ip), vehicle: saline with Tween-80 98 % of control | dose: 30.0 mg/kg/injection, schedule: Q01DX009 (ip), vehicle: saline with Tween-80 104 % of control | dose: 60.0 mg/kg/injection, schedule: Q01DX009 (ip), vehicle: saline with Tween-80 108 % of control

NC1=C(O)C(=O)C2(O1)C(=O)Nc1ccccc12 (stereo unspecified)
inactive: [3] 100 % of control | [4] 100 % of control | [5] 106 % of control

Cc1nc2[nH]ncc2c(=O)n1-c1ccccc1
inactive: [3] 97 % of control | [4] 99 % of control | [5] 100 % of control

C/C(=N\NC(=S)Nc1ccc(C(=O)O)cc1)c1nccc2ccccc12
inactive: [1] 100 % of control | [2] 90 % of control | dose: 200.0 mg/kg/injection, schedule: Q01DX005 (ip), vehicle: saline with Tween-80 90 % of control

COc1ccc(S(=O)(=O)c2coc3ccccc3c2=O)cc1
inactive: [11] 110 % of control | [12] 103 % of control | [13] 96 % of control

COc1ccc(N(Cc2ccc(C)o2)C(=S)Nc2ccccc2)cc1
inactive: [11] 98 % of control | [12] 102 % of control | [13] 105 % of control

CCn1c2ccccc2c2ccc(N=Cc3ccc([N+](=O)[O-])cc3)cc21
inactive: [8] 99 % of control | [9] 100 % of control | [10] 99 % of control

CCOP(=S)(N/N=C(\C)c1ccncc1)OCC
inactive: [3] 112 % of control | [4] 107 % of control | [5] 115 % of control

O=C1C2=C(Nc3ccccc3N2)OC1c1ccccc1Cl (stereo unspecified)
inactive: dose: 60.0 mg/kg/injection, schedule: Q01DX005 (ip), vehicle: Klucel (hydroxypropylcellulose) (HPC) 97 % of control | dose: 120.0 mg/kg/injection, schedule: Q01DX005 (ip), vehicle: Klucel (hydroxypropylcellulose) (HPC) 97 % of control

COC(=O)CCP(CCC(=O)OC)c1ccccc1
inactive: [11] 99 % of control | [12] 99 % of control | [13] 103 % of control

O=[N+]([O-])CCCN=NN1CCCCC1
inactive: dose: 12.5 mg/kg/injection, schedule: Q04DX002 (ip), vehicle: saline 104 % of control | dose: 25.0 mg/kg/injection, schedule: Q04DX002 (ip), vehicle: saline 107 % of control | dose: 50.0 mg/kg/injection, schedule: Q04DX002 (ip), vehicle: saline 103 % of control

COc1cc2cc3c4cc(OC)c(OC)cc4cc[n+]3c(CCC(=O)O)c2cc1OC
inactive: [6] 96 % of control | [7] 96 % of control | dose: 400.0 mg/kg/injection, schedule: Q01DX009 (ip), vehicle: saline with Tween-80 94 % of control
